This is an account of results in US20260374739A1, “SMALL MOLECULAR WEIGHT CHEMICAL COMPOUND TO ANTAGONIZE EPH-EPHRIN TETRAMERIZATION AND INHIBIT BIDIRECTIONAL SIGNALING” (THE BOARD OF REGENTS OF THE UNIVERSITY OF TEXAS SYSTEM, priority 2022, published 2026).

Structures are written as SMILES. Where “and” joins values, the source holds several entries; their conditions need not be identical. Identical values can stand only once. Like-named read-outs stand apart in the source and are kept apart here.

This assay deals with T1, EphrinB2-EphB1 (Homo sapiens, UniProt P54762).
T1 construct: soluble human EphB1-His, EphB2-His, and EphB4-His ectodomains; commercially available human EphrinB1-Fc (EB1), EphrinB2-Fc (EB2), and EphrinB3-Fc (EB3) ectodomain proteins; purchased
T1 sequence (P54762 18-540 limits assumed): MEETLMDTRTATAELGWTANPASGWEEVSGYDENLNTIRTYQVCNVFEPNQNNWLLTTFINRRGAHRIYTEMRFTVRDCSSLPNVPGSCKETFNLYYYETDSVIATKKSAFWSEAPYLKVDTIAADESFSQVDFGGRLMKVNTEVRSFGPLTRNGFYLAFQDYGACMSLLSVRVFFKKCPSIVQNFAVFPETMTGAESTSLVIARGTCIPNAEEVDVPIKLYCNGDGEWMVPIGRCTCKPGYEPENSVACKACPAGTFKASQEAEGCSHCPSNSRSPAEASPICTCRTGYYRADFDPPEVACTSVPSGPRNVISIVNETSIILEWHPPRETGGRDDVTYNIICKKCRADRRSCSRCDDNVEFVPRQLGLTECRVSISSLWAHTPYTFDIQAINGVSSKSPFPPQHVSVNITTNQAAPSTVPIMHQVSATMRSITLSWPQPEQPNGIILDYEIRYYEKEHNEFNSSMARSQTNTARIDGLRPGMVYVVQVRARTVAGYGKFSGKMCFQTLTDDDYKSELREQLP
Put plainly: Octet 80 sec association/500 sec dissociation, immobilized human EphrinB2-Fc binding to soluble human EphB1-His. The following applies: for inhibition at 3.2 µM: EphB1, 25 nM EphB1, 3.2 μM compound, A20-I as max control, 0* = less than 0, no inhibition; for EphB1 Inhibition Percent, Inhibition of Association ONLY: at 3.2 μM and 80 seconds; for EphB1 Inhibition Percent, Inhibition of Association ONLY / EphB1 Inhibition Percent, Inhibition of Association-Dissociation: immobilized human EphrinB2, 25 nM soluble human EphB1; for EphB1 Inhibition Percent, Inhibition of Association-Dissociation: at 3.2 μM and 580 seconds. Put shortly: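 EphrinB2-Fc captured on AHC biosensors, then soluble His-tagged EphB ectodomain (25 nM for % inhibition runs) associated 80 s and dissociated 500 s in PBS, 0.05% Tween-20, 1% DMSO ± compound. Compounds tested at 0.1–3.2 μM with a 10 μM max standard; IC50 from AUC of full traces or at 75 s and 135 s.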
(In BLI a coated tip is dipped into the sample, and binding shifts an interference pattern.)

[1] abbreviates: read-out: % Inhibition: Association + Dissociation (160 sec).
[2] abbreviates: read-out: % Inhibition: Association ONLY (80 sec).

By inhibition is commonly meant the percentage by which the read-out fell short of the control. For the compound `COc1ccc2[nH]cc(C(=O)N3CCN(c4ccccc4OC)CC3)c2c1` [Compound 64, (5-methoxy-1H-indol-3-yl)(4-(2-methoxyphenyl)piperazin-1-yl)methanone], the inhibition at 3.2 µM is, setting by setting: under setting [1], 0%; under setting [2], 0%. Take `Oc1ccc(CN2CCCCC2)c2cccnc12` [Compound 68, 5-(piperidin-1-ylmethyl)quinolin-8-ol, reference compound]: the “EphB1 Inhibition Percent, Inhibition of Association ONLY” value came to 28.3% and the “EphB1 Inhibition Percent, Inhibition of Association-Dissociation” value worked out at 46.8%. As for `COc1ccccc1N1CCN(Cc2cc(Br)c(O)c3ncccc23)CC1` [Compound 70, 7-bromo-5-((4-(2-methoxyphenyl)piperazin-1-yl)methyl)quinolin-8-ol], the inhibition at 3.2 µM under setting [1] is 58.8% and the inhibition at 3.2 µM under setting [2] was determined as 47.2%.

On to `COc1ccccc1N1CCN(Cc2cc(I)c(O)c3ncccc23)CC1` [Compound 71, 7-iodo-5-((4-(2-methoxyphenyl)piperazin-1-yl)methyl)quinolin-8-ol], for which the inhibition at 3.2 µM by setting is: under setting [1], 52.3%; under setting [2], 39.6%.

In the case of `Oc1c(CN2CCCCC2)cc(Cl)c2cccnc12` [Compound 76, 5-chloro-7-(piperidin-1-ylmethyl)quinolin-8-ol, reference compound], the “EphB1 Inhibition Percent, Inhibition of Association-Dissociation” value was 51.5% and 43.1%. On to `COCc1cc(CN2CCN(C)CC2)c(O)c2ncccc12` [Compound 77, 5-(methoxymethyl)-7-((4-methylpiperazin-1-yl)methyl)quinolin-8-ol, reference compound], for which the “EphB1 Inhibition Percent, Inhibition of Association ONLY” value is 16.9% and the “EphB1 Inhibition Percent, Inhibition of Association-Dissociation” value turned out to be 35.0%.
